Reference: US20240218242A1, “COMPOUND, FLUORESCENT DYE, KIT, AND METHOD FOR DETECTING CELLS” (NATIONAL UNIVERSITY CORPORATION KOCHI UNIVERSITY, priority 2021, published 2024)

Tests used:
[1] = system: human keratinocyte K16 (P4); assay: Toxicity evaluation (MTT test); assay type: cell-based; conditions: 100 μM, 24 hours
Method: The toxicity of fluorescence imaging of cells using the compound A obtained in Example 1 was evaluated. More specifically, the toxicity evaluation (MTT test) of the compound A to human keratinocyte K16 (P4) was performed. As a toxicity evaluation procedure, first, a medium containing the compound A at a maximum concentration of 100 μM (maximum DMSO concentration=0.5% v/v) was added to cells to prepare a 2-fold dilution series. After 24 hours, the medium was discarded and an MTT reagent ([…]) was added. After 3 hours, a 10% SDS reagent was added to the cells, and the absorbance at 570 nm was measured the next day.

[2] = system: human prostate cancer cells (PC3); assay: Confocal fluorescence imaging of stained cells; assay type: cell-based; conditions: 500 nM, 30 minutes at room temperature; excitation 405 nm; green (490-590 nm) and red (655-755 nm) channels
Method: Fluorescence imaging of cells was performed using the compound A obtained in Example 1. More specifically, confocal fluorescence imaging of human prostate cancer cells (PC3) stained with the compound A of the Example was performed (compound A concentration: 500 nM; excitation wavelength: 405 nm).
For microscopic observation, a confocal scanning laser microscope (manufactured by Olympus Corporation, FV1000-D) was used. In the measurement, fluorescence was detected in a green (490-590 nm) channel and a red (655-755 nm) channel using a 405 nm laser light source.
As the human prostate cancer cells used for the observation, cultured cells were used. The compound A (500 nM) was added to the cultured cells, and the mixture was allowed to stand at room temperature for 30 minutes, and then imaging was performed.

[3] = system: human skin tissue (frozen tissue); assay: Two-photon fluorescence imaging of stained human skin tissue; conditions: 10 μM; excitation 960 nm; in combination with clearing reagent (LUCID)
Method: Human skin tissue (frozen tissue) imaging was performed using the compound A obtained in Example 1. More specifically, two-photon fluorescence imaging of human skin tissues (frozen tissues) stained with the compound A of the Example was performed (compound A concentration: 10 μM, excitation wavelength: 960 nm; a clearing reagent (LUCID) was used in combination.).
For microscopy, a two-photon microscope A1R MP+(NIKON) was used. In the measurement, 960 nm was used as a laser light source for excitation for the compound A. Scanning was performed to a depth of 100 μm of the sample. The three-dimensional reconstructed image is obtained by processing the obtained data with attached software.
Human skin tissues were embedded in paraffin and then cut out to prepare tissue sections. The preparation of the sections (thickness: 5 μm) was performed by the procedure usually performed in histopathological examination. For staining with the compound A dye, deparaffinization was performed by a conventional method, and then staining was performed by immersion in the aforementioned dye at room temperature for several days to one week. In practice, the tissues were sufficiently stained by immersion in the dye at room temperature for 2 to 3 days.

[4] = Photophysical properties (absorption spectrum, fluorescence spectrum, fluorescence quantum yield) in organic solvents; assay type: physicochemical; conditions: 5 μM
Method: The absorption spectrum and fluorescence spectrum in organic solvents of the compound A obtained in Example 1 were measured.
(§1) The absorption spectrum and the fluorescence spectrum were measured using a UV-Visible/NIR spectrophotometer (V-670 manufactured by JASCO Corporation) and a spectrofluorometer (FP6600 manufactured by JASCO Corporation), respectively. The fluorescence quantum yield was measured using an absolute PL quantum yield spectrometer (Hamamatsu Photonics K.K.: C 9920-02V). The concentration of the compound A was 5 μM for each solvent. For solvent species, toluene, dichloromethane, DMSO, and ethanol were used.
The absorption spectrum and fluorescence spectrum in organic solvents of the compound B obtained in Example 8 were measured.
as §1, with “Corporation), respectively, in the same manner as in Example 2.” for “Corporation), respectively.”, “compound B” for “compound A”
The absorption spectrum and fluorescence spectrum in organic solvents of the compound C obtained in Example 10 were measured.
as §1, with “Corporation), respectively, in the same manner as in Example 2.” for “Corporation), respectively.”, “compound C” for “compound A”

[5] = Fluorescence spectrum measurement in lipid membrane (liposome); assay type: physicochemical; conditions: compound 2 μM, lipid 200 μM
Method: The fluorescence spectrum of the compound A obtained in Example 1 in a lipid membrane (liposome) was measured. More specifically, the fluorescence spectrum of the compound A in a liposome composed of 1,2-dioleoyl-sn-glycero-3-phosphocholine (DOPC) and sphingomyelin (SM)/cholesterol (Chol) was measured (compound A concentration: 2 μM, lipid concentration: 200 μM). The fluorescence spectrum measurement was carried out using the same instrument as that used in Example 2.

[6] = Evaluation of light stability (fluorescence intensity over time under UV excitation); assay type: physicochemical; conditions: 3000 seconds after excitation by UV irradiation; toluene; 5 μM; excitation 378 nm; detection 483 nm
Method: The light stability of the compound A obtained in Example 1 was evaluated.
The light stability of the compound A and that of a commercially available solvatochromic dye Laurdan were compared (solvent: toluene; each dye concentration: 5 μM; excitation wavelength: 378 nm; detection wavelength: 483 nm). Laurdan is a compound with a CAS number of 74515-25-6. The fluorescence spectrum measurement was carried out using the same instrument as that used in Example 2.

With `CCCC(=O)/C=C/c1ccc2ccc3c(N4CCCCC4)ccc4ccc1c2c43` [compound A] the cell viability [1] was 93.9%, the “Fluorescence in cell membrane (plasma membrane) and oil droplets (lipid droplet)” value [2] was “strong fluorescence was observed in the green channel” and the “Staining of human skin tissue” value [3] was “capable of strongly staining the membrane of each cell constituting the human skin tissue”. The Fluorescence quantum yield ([4]; DCM) was 86%, the Maximum absorption wavelength ([4]; DCM) was 427 nm and the Maximum fluorescence wavelength ([4]; DCM) was 615 nm. The Fluorescence quantum yield ([4]; DMSO) was 79%, the Maximum absorption wavelength ([4]; DMSO) was 429 nm and the Maximum fluorescence wavelength ([4]; DMSO) was 647 nm. The Fluorescence quantum yield ([4]; EtOH) was 20%, the Maximum absorption wavelength ([4]; EtOH) was 427 nm and the Maximum fluorescence wavelength ([4]; EtOH) was 691 nm. For the same compound, the Fluorescence quantum yield ([4]; Toluene) was 82%, the Maximum absorption wavelength ([4]; Toluene) was 424 nm and the Maximum fluorescence wavelength ([4]; Toluene) was 546 nm. For the same compound, the Fluorescence solvatochromism ([4]; toluene, dichloromethane, DMSO, ethanol) was “fluorescence solvatochromism sensitive to solvent polarity was observed”, the Fluorescence quantum yield ([5]; DOPC liposome) was 37% and the Maximum fluorescence wavelength ([5]; DOPC liposome) was 603 nm. The Fluorescence quantum yield ([5]; SM/Chol liposome) was 72%, the Maximum fluorescence wavelength ([5]; SM/Chol liposome) was 577 nm and the “Fluorescence intensity (light stability)” value [6] was “the fluorescence intensity was maintained as it was”.
For `CCCCCCCCCCCC(=O)c1ccc2cc(N(C)C)ccc2c1` [Laurdan, reference compound], the “Fluorescence intensity (light stability)” value [6] was no more than 0.6.
